From US6723364B1, “Fog treatment method using a liquid composition for treating fruits and vegetables and implementing device” (Xeda International, priority 1998, dated 2004)
In brackets after ≈: the same amount, converted by molar mass.

How the values were obtained:
[1] = test system: Erwinia carotovora; assay: Bactericidal activity in vitro in LB agar medium; type: cell-based; details: 28° C.; for MIC: Pectobacterium carotovorum, Erwinia sp., read-out: MIC (concentration needed to completely inhibit the growth of the bacteria)
Experimental: (§1) The bactericidal activity of eugenol and isoeugenol was evaluated in vitro and compared with that of other terpenes.
(§2) The culture medium used is the following LB medium:
(§3) Bactotryptone: 1% by weight
(§4) Yeast extract: 0.5% by weight
(§5) A suspension of bacteria at 10^6 CFU/ml was prepared in sterilized water from the LB medium. 200 μl of this bacterial suspension were added to 20 ml of presterilized LB culture medium brought to 55° C. The tested terpene is then added to the culture medium. After agitation, the medium is immediately divided among Petri dishes. The medium solidifies on cooling.
(§6) Incubation is carried out at 28° C. when the bacterium is Erwinia carotovora and at 37° C. when the bacterium is Escherichia coli.
(§7) The growth of mould in the culture medium is observed. The same experiment is carried out in the absence of terpene (control experiment).
The results are evaluated using the following assessment scale:
++: mould growth identical to the control
+: mould present with a marked reduction in growth with respect to the control
: complete absence of growth.
The results obtained for 3 different concentrations, namely 20, 80 and 320 μg/ml, in the case of the bacterium Erwinia carotovora are summarized in Table 7.
(§8) The protocol used is that described above.

[2] = test system: Fusarium oxysporum; assay: Germination of the spores in vitro; type: cell-based; details: FO;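 note: ++ germination like control and 0 no spores germinated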
Experimental: (§9) The activity of eugenol and of isoeugenol on the germination of the spores was evaluated in vitro and compared with that of other terpenes.
(§10) The procedure of Example 4 is used to do this, except that the concentration of eugenol and of isoeugenol was set at x μg/ml in the culture media used and that 50 μl of a suspension of spores, adjusted to 100,000 spores/ml, are deposited in each Petri dish.
(§11) The same experiment was carried out starting with a terpene-free culture medium (control test).
(§12) The results were evaluated using the following assessment criteria:
(§13) +: considerable reduction in the level of spores germinated
(§14) The results obtained for 3 different concentrations of terpenes in the culture medium, namely 40 μg/ml, 80 μg/ml and 1280 μg/ml, are listed in Tables 4, 5 and 6.

[3] = test system: Alternaria alternata; assay: Germination of the spores in vitro; type: cell-based; details: AA;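 note: ++ germination like control and 0 no spores germinated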
Experimental: as §9, §10, §11, §12, §13, §14

[4] = test system: Phlyctaena vagabonda (“Gloeosporium”); assay: Germination of the spores in vitro; type: cell-based; details: PV;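 note: ++ germination like control and 0 no spores germinated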
Experimental: as §9, §10, §11, §12, §13, §14

[5] = test system: Geocrichum candidum; assay: Germination of the spores in vitro; type: cell-based; details: GC
Experimental: as §9, §10, §11, §12, §13, §14

[6] = test system: Penicillium expansum; assay: Germination of the spores in vitro; type: cell-based; details: PE;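 note: ++ germination like control and 0 no spores germinated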
Experimental: as §9, §10, §11, §12, §13, §14

[7] = test system: Botrytis cinerea; assay: Germination of the spores in vitro; type: cell-based; details: BC
Experimental: as §9, §10, §11, §12, §13, §14

[8] = test system: Phytophtora parasitica; assay: Germination of the spores in vitro; type: cell-based; details: PhP
Experimental: as §9, §10, §11, §12, §13, §14

[9] = test system: Penicillium digitatum; assay: Germination of the spores in vitro; type: cell-based; details: PD
Experimental: as §9, §10, §11, §12, §13, §14

[10] = test system: potato tubers; assay: Sprouting-inhibiting treatment of potato tubers by thermal fogging; type: in vivo; details: after 5 months; cold room 8 to 9° C.; 45 g/tonne then 15 g/tonne every 20 days by thermal fogging
Experimental: The effectiveness of eugenol and of isoeugenol in the sprouting-inhibiting treatment of potato tubers was evaluated and compared with that of other terpenes.
The following compositions were used in the case of eucalyptol, eugenol, isoeugenol, limonene, safrole and terpineol:
60% by weight of terpene;
7% by weight of a nonionic emulsifier;
33% by weight of butyl acetate.
In the case of L-carvone, the following composition was employed:
30% by weight of L-carvone;
10% by weight of ethanol;
5% by weight of nonionic emulsifier;
35% by weight of propylene glycol.
Isopropyl chlorophenylcarbamate (CIPC) is a compound used in the art as sprouting inhibitor for potato tubers. Its activity was compared with that of eugenol and of isoeugenol.
The composition based on isopropyl chloro-phenylcarbamate has the following formulation: […]
20% by weight of isopropyl chlorophenyl-carbamate;
50% by weight of propylene glycol;
10% by weight of nonionic emulsifier;
Each of the compositions tested was applied by thermal fogging. The temperature at the outlet of the thermal fogging device was 240° C., except in the case of the compositions based on L-carvone and on CIPC, where it was 180° C.
The amount of composition which has to be applied is calculated in each case so as to obtain an equivalent concentration of active material on the potato tubers.
In this example, repeated applications were carried out by following the following protocol:
45 g/tonne of tubers at the beginning of storage;
15 g/tonne of tubers every 20 days; so that, after 6 months, 165 g of active principle have been applied per tonne of tubers.
During storage, the tubers were stored in a cold room at a temperature of 8 to 9° C.

[11] = test system: species of fungus (AA, BC, FO, GC, GR, PD, PE, PV, PhP); assay: Fungicidal activity in vitro: total of inhibition grades over the nine species of fungus; type: cell-based; details: sum of the grades over the nine fungi
Experimental: The Cristomalt medium used for the evaluations of the fungicidal activities comprises 0.1% of Cristomalt (malt extract) and 0.2% of agar.
This culture medium is, after sterilization, brought to 55° C. The terpene compound tested is then introduced in the pure form into the culture medium under warm conditions. Immediately after agitating, the medium, enriched with the terpene product, is poured into Petri dishes (diameter 9 cm, filled with 20 ml of medium). The agar-comprising medium solidifies on cooling. The Petri dishes are then inoculated with plugs, with a diameter of 6 mm, withdrawn from the edge of a culture of the tested fungus, which culture is obtained on Cristomalt medium.
Inoculation is carried out at 22° C.
The mycelial growth was determined periodically (5 to 15 days, according to the species of fungus).
The results obtained are analysed simply by using the assessment scale illustrated in Table 2:
The results obtained have been expressed in Table 3 using the scale in Table 2.

[12] = test system: Escherichia coli; assay: Bactericidal activity in vitro in LB agar medium; type: cell-based; details: Escherichia sp., 37° C., read-out: MIC (concentration needed to completely inhibit the growth of the bacteria)
Experimental: as §1, §2, §3, §4, §5, §6, §7, §8

C=CCc1ccc(O)c(OC)c1 [EUGENOL, eugenol]
growth in the culture medium with respect to the control ([1]; Concentration 20 μg/ml): + | growth in the culture medium with respect to the control ([1]; Concentration 80 μg/ml): − | growth in the culture medium with respect to the control ([1]; Concentration 320 μg/ml): − | MIC [1]: 20 to 40 µg/mL (≈ 122 to 244 µM) | germination of the spores ([2]; x = 40 μg/ml): 0 | germination of the spores ([2]; x = 80 μg/ml): 0 | germination of the spores ([2]; x = 1280 μg/ml): 0 | germination of the spores ([3]; x = 40 μg/ml): 0 | germination of the spores ([3]; x = 80 μg/ml): 0 | germination of the spores ([3]; x = 1280 μg/ml): 0 | germination of the spores ([4]; x = 40 μg/ml): 0 | germination of the spores ([4]; x = 80 μg/ml): 0 | germination of the spores ([4]; x = 1280 μg/ml): 0 | germination of the spores ([5]; x = 40 μg/ml): 0 | germination of the spores ([5]; x = 80 μg/ml): 0 | germination of the spores ([5]; x = 1280 μg/ml): 0 | germination of the spores ([6]; x = 40 μg/ml): 0 | germination of the spores ([6]; x = 80 μg/ml): 0 | germination of the spores ([6]; x = 1280 μg/ml): 0 | germination of the spores ([7]; x = 40 μg/ml): 0 | germination of the spores ([7]; x = 80 μg/ml): 0 | germination of the spores ([7]; x = 1280 μg/ml): 0 | germination of the spores ([8]; x = 40 μg/ml): 0 | germination of the spores ([8]; x = 80 μg/ml): 0 | germination of the spores ([8]; x = 1280 μg/ml): 0 | germination of the spores ([9]; x = 40 μg/ml): 0 | germination of the spores ([9]; x = 80 μg/ml): 0 | germination of the spores ([9]; x = 1280 μg/ml): 0 | Loss in weight of the tubers [10]: 2.6% | Total weight of the sprouts >2 mm [10]: 3.6 g | Tubers at the white point stage [10]: 45.3% | Tubers with sprouts 2 to 5 mm [10]: 6.2% | Tubers with sprouts <2 mm [10]: 35.2% | Tubers with sprouts >2 mm [10]: 12.0% | Tubers with sprouts >5 mm [10]: 5.8% | Unsprouted tubers [10]: 7.5% | Total of the degrees of inhibition [11]: 63 | MIC [12]: 40 to 80 µg/mL (≈ 244 to 487 µM)

CC=Cc1ccc(O)c(OC)c1 [ISOEUGENOL, isoeugenol]
growth in the culture medium with respect to the control ([1]; Concentration 20 μg/ml): + | growth in the culture medium with respect to the control ([1]; Concentration 80 μg/ml): − | growth in the culture medium with respect to the control ([1]; Concentration 320 μg/ml): − | MIC [1]: 20 to 40 µg/mL (≈ 122 to 244 µM) | germination of the spores ([2]; x = 40 μg/ml): 0 | germination of the spores ([2]; x = 80 μg/ml): 0 | germination of the spores ([2]; x = 1280 μg/ml): 0 | germination of the spores ([3]; x = 40 μg/ml): 0 | germination of the spores ([3]; x = 80 μg/ml): 0 | germination of the spores ([3]; x = 1280 μg/ml): 0 | germination of the spores ([4]; x = 40 μg/ml): 0 | germination of the spores ([4]; x = 80 μg/ml): 0 | germination of the spores ([4]; x = 1280 μg/ml): 0 | germination of the spores ([5]; x = 40 μg/ml): 0 | germination of the spores ([5]; x = 80 μg/ml): 0 | germination of the spores ([5]; x = 1280 μg/ml): 0 | germination of the spores ([6]; x = 40 μg/ml): 0 | germination of the spores ([6]; x = 80 μg/ml): 0 | germination of the spores ([6]; x = 1280 μg/ml): 0 | germination of the spores ([7]; x = 40 μg/ml): ++ | germination of the spores ([7]; x = 80 μg/ml): 0 | germination of the spores ([7]; x = 1280 μg/ml): 0 | germination of the spores ([8]; x = 40 μg/ml): 0 | germination of the spores ([8]; x = 80 μg/ml): 0 | germination of the spores ([8]; x = 1280 μg/ml): 0 | germination of the spores ([9]; x = 40 μg/ml): 0 | germination of the spores ([9]; x = 80 μg/ml): 0 | germination of the spores ([9]; x = 1280 μg/ml): 0 | Loss in weight of the tubers [10]: 2.7% | Total weight of the sprouts >2 mm [10]: 8.5 g | Tubers at the white point stage [10]: 22.6% | Tubers with sprouts 2 to 5 mm [10]: 10.6% | Tubers with sprouts <2 mm [10]: 56.8% | Tubers with sprouts >2 mm [10]: 14.4% | Tubers with sprouts >5 mm [10]: 3.8% | Unsprouted tubers [10]: 6.2% | Total of the degrees of inhibition [11]: 64 | MIC [12]: 40 to 80 µg/mL (≈ 244 to 487 µM)
